# Patent US20230117034A1, “PYRAZOLOTRIAZINES” (Bayer Aktiengesellschaft, priority 2019, published 2023)
# How the values were obtained:
# CDK2/CycE = biological target: T1, CDK2/CycE (Homo sapiens, UniProt P24941); test: CDK2/CycE kinase assay (TR-FRET, 2 mM ATP); format: biochemical; settings: 2 mM ATP (high ATP); median; read-out: CDK2/CyclinE, 2 mM ATP (high ATP), IC50 (median)
# T1 construct: purchased ProQinase GmbH (Freiburg, Germany); host or cells: insect cells (Sf9)
# Outline: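 Biotin-peptide phosphorylation (0.75 µM substrate, 2 mM ATP final, 25 min, 22 °C) by Sf9-expressed GST-CDK2/GST-CycE, after a 15-min compound pre-binding step. Inhibition scaled between enzyme-free (100%) and uninhibited (0%) wells.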
# [1] = biological target: T2, CDK12 (nuclear staining in CAL-120 cells) (Homo sapiens, UniProt Q9NYV4); test: CDK12 nuclear protein level: immunofluorescence/high content analysis (CAL-120); format: cell-based; settings: for DC50: CAL-120 cells, 24 h, immunofluorescence, 50% reduction of nuclear CDK12 staining intensity, median, read-out: CDK12 degradation IF, DC50- [mol/l] (median); for (IC50 CDK12 high ATP) to (Degradation DC50 CDK12) ratio: ratio of IC50 CDK12 high ATP kinase assay to DC50 CDK12 degradation (IF, CAL-120)
# T2 construct: endogenous in cells; host or cells: CAL-120 human breast cancer cells (DSMZ ACC 459)
# T2 sequence (Q9NYV4 whole entry): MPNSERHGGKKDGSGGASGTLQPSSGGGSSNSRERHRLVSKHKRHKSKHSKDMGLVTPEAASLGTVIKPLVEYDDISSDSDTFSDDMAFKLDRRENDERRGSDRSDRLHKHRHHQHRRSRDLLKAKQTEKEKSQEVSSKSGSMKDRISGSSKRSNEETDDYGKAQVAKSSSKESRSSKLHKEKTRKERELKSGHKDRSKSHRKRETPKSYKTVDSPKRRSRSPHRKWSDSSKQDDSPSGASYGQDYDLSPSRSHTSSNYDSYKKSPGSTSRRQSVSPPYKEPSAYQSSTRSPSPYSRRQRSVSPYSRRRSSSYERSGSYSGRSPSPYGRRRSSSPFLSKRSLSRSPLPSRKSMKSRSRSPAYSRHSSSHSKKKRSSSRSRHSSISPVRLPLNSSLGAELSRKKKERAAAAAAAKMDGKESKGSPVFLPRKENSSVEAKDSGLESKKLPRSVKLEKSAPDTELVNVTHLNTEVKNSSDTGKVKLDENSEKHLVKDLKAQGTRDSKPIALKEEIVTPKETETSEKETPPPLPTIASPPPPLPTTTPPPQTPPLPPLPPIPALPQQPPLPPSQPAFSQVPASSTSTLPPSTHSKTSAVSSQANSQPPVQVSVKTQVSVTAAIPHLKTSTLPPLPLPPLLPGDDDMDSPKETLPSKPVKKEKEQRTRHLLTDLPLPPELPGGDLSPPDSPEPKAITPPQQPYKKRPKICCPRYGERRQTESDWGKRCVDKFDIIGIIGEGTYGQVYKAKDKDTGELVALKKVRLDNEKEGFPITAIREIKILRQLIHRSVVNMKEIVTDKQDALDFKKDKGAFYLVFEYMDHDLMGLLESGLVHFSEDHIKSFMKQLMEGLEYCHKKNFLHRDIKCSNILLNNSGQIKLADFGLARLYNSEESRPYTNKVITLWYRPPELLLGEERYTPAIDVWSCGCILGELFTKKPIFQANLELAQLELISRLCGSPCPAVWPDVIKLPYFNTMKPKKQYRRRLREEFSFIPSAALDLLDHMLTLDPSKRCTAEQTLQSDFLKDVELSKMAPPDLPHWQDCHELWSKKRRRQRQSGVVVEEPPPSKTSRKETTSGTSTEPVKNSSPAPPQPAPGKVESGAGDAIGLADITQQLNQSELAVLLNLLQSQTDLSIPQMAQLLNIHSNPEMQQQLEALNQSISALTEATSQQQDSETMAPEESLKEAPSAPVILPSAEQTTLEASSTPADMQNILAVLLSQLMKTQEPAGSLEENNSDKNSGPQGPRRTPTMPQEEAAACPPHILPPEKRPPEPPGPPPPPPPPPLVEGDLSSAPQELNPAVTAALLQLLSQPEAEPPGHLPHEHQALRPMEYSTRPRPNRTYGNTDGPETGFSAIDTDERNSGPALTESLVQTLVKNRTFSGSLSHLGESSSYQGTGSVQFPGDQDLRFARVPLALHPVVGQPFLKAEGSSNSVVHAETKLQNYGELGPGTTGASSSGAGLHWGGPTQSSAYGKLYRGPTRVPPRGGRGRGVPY
# T2 sequence (O75909 whole entry partner): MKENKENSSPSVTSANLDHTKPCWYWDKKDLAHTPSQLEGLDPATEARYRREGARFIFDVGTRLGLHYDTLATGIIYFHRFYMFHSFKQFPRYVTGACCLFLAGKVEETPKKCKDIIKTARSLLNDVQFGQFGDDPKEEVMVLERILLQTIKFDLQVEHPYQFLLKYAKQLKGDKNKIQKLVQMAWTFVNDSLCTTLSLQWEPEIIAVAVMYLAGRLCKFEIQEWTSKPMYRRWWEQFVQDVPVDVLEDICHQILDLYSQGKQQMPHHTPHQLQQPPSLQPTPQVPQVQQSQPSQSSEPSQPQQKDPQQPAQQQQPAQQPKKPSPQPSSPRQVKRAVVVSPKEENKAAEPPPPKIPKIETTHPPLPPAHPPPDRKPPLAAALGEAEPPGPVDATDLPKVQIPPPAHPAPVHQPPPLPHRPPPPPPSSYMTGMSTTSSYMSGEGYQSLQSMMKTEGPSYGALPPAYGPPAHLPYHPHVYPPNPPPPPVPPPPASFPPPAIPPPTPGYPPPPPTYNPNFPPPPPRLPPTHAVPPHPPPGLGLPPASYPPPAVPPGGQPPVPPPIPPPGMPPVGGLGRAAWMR
# Outline: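 DC50 is the degrader concentration that halves nuclear CDK12 immunofluorescence relative to controls, measured by high-content imaging. CAL-120 cells were exposed to compound for 24 h at 37 °C before PFA fixation, and signal was normalized to DMSO and control wells.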
# [2] = biological target: T3, CYCLIN K (nuclear staining in CAL-120 cells) (Homo sapiens, UniProt O75909); test: CYCLIN K nuclear protein level: immunofluorescence high content analysis (CAL-120); format: cell-based; settings: 24 h, 50% reduction of nuclear CCNK staining intensity, median, read-out: CYCLIN K degradation IF, DC50-[mol/l] (median)
# T3 construct: endogenous in cells; host or cells: CAL-120 human breast cancer cells (DSMZ ACC 459)
# T3 sequence (O75909 whole entry): as the sequence (O75909 whole entry partner) above
# T3 sequence (Q9NYV4 whole entry partner): as the sequence (Q9NYV4 whole entry) above
# Outline: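 Readout is automated confocal image analysis of nuclear cyclin K immunofluorescence (Hoechst nuclei) after PFA fixation. Cells were CAL-120, exposed to compound dose-response 24 h at 37 °C; values are DC50 for halving nuclear CCNK signal relative to DMSO and control wells.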
Compound,IC50 (CDK2/CycE),DC50 [1],(IC50 CDK12 high ATP) to (Degradation DC50 CDK12) ratio [1],DC50 [2]
"C[C@@H]1CN(c2nc(NCc3nnc(-c4ccccc4)[nH]3)n3ncc(Br)c3n2)C[C@H](C)O1 [Example 78, 8-bromo-2-[(2R,6S)-2,6-dimethylmorpholin-4-yl]-N-[(5-phenyl-4H-1,2,4-triazol-3-yl)methyl]pyrazolo[1,5-a][1,3,5]triazin-4-amine]",4280 nM,5.15 nM,141,1.61 nM
"Fc1cccc(-c2cnc(CNc3nc(N4CCOCC4)nc4c(Br)cnn34)[nH]2)c1 [Example 79, 8-bromo-N-{[5-(3-fluorophenyl)-1H-imidazol-2-yl]methyl}-2-(morpholin-4-yl)pyrazolo[1,5-a][1,3,5]triazin-4-amine]",2300 nM,1.23 nM,460,0.469 nM
"FC(F)(F)Oc1cccc(-c2cnc(CNc3nc(N4CCOCC4)nc4c(Br)cnn34)[nH]2)c1 [Example 82, 8-bromo-2-(morpholin-4-yl)-N-({5-[3-(trifluoromethoxy)phenyl]-1H-imidazol-2-yl}methyl)pyrazolo[1,5-a][1,3,5]triazin-4-amine]",11600 nM,22.3 nM,41,14.2 nM
"FC(F)(F)c1cccc(-c2cnc(CNc3nc(N4CCOCC4)nc4c(Br)cnn34)[nH]2)c1 [Example 83, 8-bromo-2-(morpholin-4-yl)-N-({5-[3-(trifluoromethyl)phenyl]-1H-imidazol-2-yl}methyl)pyrazolo[1,5-a][1,3,5]triazin-4-amine]",7660 nM,9.37 nM,111,1.78 nM
"Brc1cnn2c(NCc3ncc(-c4cccnc4)[nH]3)nc(N3CCOCC3)nc12 [Example 84, 8-bromo-2-(morpholin-4-yl)-N-{[5-(pyridin-3-yl)-1H-imidazol-2-yl]methyl}pyrazolo[1,5-a][1,3,5]triazin-4-amine]",4840 nM,21.2 nM,98,11.8 nM
"Cc1ccccc1-c1cnc(CNc2nc(N3CCOCC3)nc3c(Br)cnn23)[nH]1 [Example 85, 8-bromo-N-{[5-(2-methylphenyl)-1H-imidazol-2-yl]methyl}-2-(morpholin-4-yl)pyrazolo[1,5-a][1,3,5]triazin-4-amine]",4520 nM,5.57 nM,1137,1.2 nM
"Fc1ccccc1-c1cnc(CNc2nc(N3CCOCC3)nc3c(Br)cnn23)[nH]1 [Example 86, 8-bromo-N-{[5-(2-fluorophenyl)-1H-imidazol-2-yl]methyl}-2-(morpholin-4-yl)pyrazolo[1,5-a][1,3,5]triazin-4-amine]",1950 nM,3.95 nM,478,0.576 nM

# More lines, in order of falling IC50 (CDK2/CycE), values ahead:
IC50 (CDK2/CycE),DC50 [1],(IC50 CDK12 high ATP) to (Degradation DC50 CDK12) ratio [1],DC50 [2],Compound
8340 nM,12.1 nM,>440,8.06 nM,"COC1CCN(c2nc(NCc3nnc(-c4ccccc4)[nH]3)n3ncc(Br)c3n2)CC1 [Example 76, 8-bromo-2-(4-methoxypiperidin-1-yl)-N-[(5-phenyl-4H-1,2,4-triazol-3-yl)methyl]pyrazolo[1,5-a][1,3,5]triazin-4-amine]"
4040 nM,4.28 nM,276,1.34 nM,"COc1cccc(-c2cnc(CNc3nc(N4CCOCC4)nc4c(Br)cnn34)[nH]2)c1 [Example 80, 8-bromo-N-{[5-(3-methoxyphenyl)-1H-imidazol-2-yl]methyl}-2-(morpholin-4-yl)pyrazolo[1,5-a][1,3,5]triazin-4-amine]"
4030 nM,5.31 nM,144,3.87 nM,"Clc1cccc(-c2cnc(CNc3nc(N4CCOCC4)nc4c(Br)cnn34)[nH]2)c1 [Example 81, 8-bromo-N-{[5-(3-chlorophenyl)-1H-imidazol-2-yl]methyl}-2-(morpholin-4-yl)pyrazolo[1,5-a][1,3,5]triazin-4-amine]"
